The record followed here is patent US12286404B2, “Solid state forms of Mitapivat and process for preparation thereof” (TEVA PHARMACEUTICALS INTERNATIONAL GMBH, priority 2020, dated 2025).

Counter-ions that a name gives are not always drawn.

Format in all cases: physicochemical
Data set [1] can be described thus: Hygroscopicity.
Data set [2] can be described thus: Storage stability under humidity/temperature conditions. Particulars: for stability under regular conditions: 60% RH at RT; for stability under regular conditions / stability under accelerated conditions: for at least one month; for stability under accelerated conditions: 75% RH at 40° C.; for stability up to 80% RH: up to 80% RH at RT, for at least one week.
Data set [3] can be described thus: Stability under stress conditions (heating, grinding, high pressure). Particulars: for stability under stress conditions: heating, grinding and high pressure.

Consider `O=C(c1ccc(NS(=O)(=O)c2cccc3cccnc23)cc1)N1CCN(CC2CC2)CC1` [Form I of Mitapivat HCl, Mitapivat HCl], for which the hygroscopicity entry in data set [1] is “non-hygroscopic”. Moreover, in data set [2], the “stability under regular conditions” value is “stable” and the “stability under accelerated conditions” value is on record as “stable”. Further, the “stability under stress conditions” value in data set [3] is reported as “stable”.

As for `O=C(c1ccc(NS(=O)(=O)c2cccc3cccnc23)cc1)N1CCN(CC2CC2)CC1` [Form III of Mitapivat HCl, Mitapivat HCl], the “stability up to 80% RH” value in data set [2] is “stable”.

Consider Mitapivat hemisulfate:ascorbic acid, for which the hygroscopicity result in data set [1] was “non-hygroscopic”. In addition, in data set [2], the “stability under regular conditions” value was “polymorphically and chemically stable”; the “stability under accelerated conditions” value is “polymorphically and chemically stable”. Also, the “stability under stress conditions” value in data set [3] is on record as “stable”.

As to “Mitapivat phosphate [Form P1 of Mitapivat phosphate]”, the hygroscopicity entry in data set [1] is on record as “non-hygroscopic”. Also, the “stability up to 80% RH” value in data set [2] was “stable”. Besides, the stability under grinding entry in data set [3] (grinding) is “stable”.
